# Measurements: patent US9534300B2, “Water soluble substituted imidazolines as corrosion inhibitors for ferrous metals” (Ecolab USA, Inc., priority 2014, dated 2017)
# Assay: Solubility in water of synthesized substituted imidazolines
# Format: physicochemical
row,Solubility in water,SMILES
1,Yes Yes Yes,"CCCCCC1=NCCN1CCNCCC(=O)O [No. 5, 3-((2-(2-pentyl-4,5-dihydro-1H-imidazol-1-yl)ethyl)amino)propanoic acid]"
2,Yes Yes Yes,"CCCCCCCC1=NCCN1CCNCCC(=O)O [No. 6, 3-((2-(2-heptyl-4,5-dihydro-1H-imidazol-1-yl)ethyl)amino)propanoic acid]"
3,Yes Yes Yes,"CCCCCCCCCCCC1=NCCN1CCNCCC(=O)O [No. 7, 3-((2-(2-undecyl-4,5-dihydro-1H-imidazol-1-yl)ethyl)amino)propanoic acid]"
